Experimental data as given in US9828350B2, “5,6-dihydro-2H-[1,4]oxazin-3-yl-amine derivatives useful as inhibitors of beta-secretase (BACE)” (Janssen Pharmaceutica NV, priority 2010, dated 2017).

Key:
[1] = target: recombinant BACE1 protein (Homo sapiens, UniProt P56817); assay: Biochemical FRET based assay; details: recombinant BACE1 1 μg/ml, 120 minutes at room temperature, pH 5.0; read-out: Biochemical FRET based assay pIC50 (converted)
Summary of the method: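 Recombinant BACE1 (1 μg/ml final) was incubated 120 minutes at room temperature with […] Mca/Dnp-labelled 13-mer APP Swedish-mutant peptide in 40 mM citrate pH 5.0, 0.04% PEG, 4% DMSO, with or without compound. Cleavage was measured as fluorescence (ex 320/em 405 nm), given as RFU difference between T120 and T0.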

P-gp = target: T1, P-gp (Homo sapiens, UniProt P08183); assay: Transepithelial transport of test compounds through LLC-MDR1 monolayers; format: in vitro ADME; details: pig, LLC-PK1
T1 construct: expressed in transfected cells; host or cells: LLC-PK1 cells stably transduced with MDR1 (LLC-MDR1)
T1 sequence (P08183 whole entry): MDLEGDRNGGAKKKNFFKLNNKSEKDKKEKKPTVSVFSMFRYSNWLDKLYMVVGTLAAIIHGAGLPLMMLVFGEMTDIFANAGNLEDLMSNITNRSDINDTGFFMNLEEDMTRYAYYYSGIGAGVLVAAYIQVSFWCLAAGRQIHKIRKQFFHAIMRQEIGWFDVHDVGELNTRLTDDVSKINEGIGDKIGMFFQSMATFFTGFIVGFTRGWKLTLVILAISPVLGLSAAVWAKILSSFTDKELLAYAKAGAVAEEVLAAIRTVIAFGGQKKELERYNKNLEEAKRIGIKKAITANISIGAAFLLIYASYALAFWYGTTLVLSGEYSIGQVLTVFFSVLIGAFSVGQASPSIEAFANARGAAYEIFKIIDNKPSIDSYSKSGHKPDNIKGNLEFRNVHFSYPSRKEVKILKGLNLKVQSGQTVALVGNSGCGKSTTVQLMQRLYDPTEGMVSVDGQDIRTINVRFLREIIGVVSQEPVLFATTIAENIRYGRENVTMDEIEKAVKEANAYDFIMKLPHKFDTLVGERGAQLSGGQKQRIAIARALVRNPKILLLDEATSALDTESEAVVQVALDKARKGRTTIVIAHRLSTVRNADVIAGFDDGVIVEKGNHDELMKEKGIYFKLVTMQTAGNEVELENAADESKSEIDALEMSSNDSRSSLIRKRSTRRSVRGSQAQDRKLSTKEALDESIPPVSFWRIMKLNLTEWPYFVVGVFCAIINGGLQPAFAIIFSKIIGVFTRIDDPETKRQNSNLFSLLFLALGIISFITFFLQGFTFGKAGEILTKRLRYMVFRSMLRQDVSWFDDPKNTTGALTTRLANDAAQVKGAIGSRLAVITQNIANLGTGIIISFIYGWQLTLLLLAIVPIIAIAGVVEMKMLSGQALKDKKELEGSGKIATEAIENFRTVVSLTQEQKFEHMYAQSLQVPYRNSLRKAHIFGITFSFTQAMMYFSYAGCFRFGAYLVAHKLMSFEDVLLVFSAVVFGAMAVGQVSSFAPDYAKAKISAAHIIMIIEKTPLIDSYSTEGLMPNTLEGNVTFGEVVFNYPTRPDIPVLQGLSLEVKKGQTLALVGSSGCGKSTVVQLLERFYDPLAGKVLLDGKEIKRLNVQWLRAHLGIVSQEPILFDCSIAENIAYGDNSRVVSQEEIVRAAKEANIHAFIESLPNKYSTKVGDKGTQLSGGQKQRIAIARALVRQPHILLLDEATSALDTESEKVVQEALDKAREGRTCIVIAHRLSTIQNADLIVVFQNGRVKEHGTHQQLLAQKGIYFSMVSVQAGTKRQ
Summary of the method: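 LLC-PK1 cells stably transduced with human MDR1, grown 5 days on transwell inserts; compound at 1 μM applied apically or basolaterally (A→B, B→A) in OPTI-MEM with 1% BSA, 120 min at 37 °C, triplicate. Acceptor and donor sampled and quantified by LC-MS/MS; fluorescein checked monolayer integrity.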

Abeta 1-38 = details: 20 mg/kg, 24 h
[2] = Single dose pharmacology in the Beagle dog, limited safety evaluation; format: in vivo; details: single dose 20 mg/kg
Protocol: Single Dose Pharmacology in the Beagle Dog
Compound 86 was tested to evaluate the effect on the beta-amyloid profile in cerebrospinal fluid (CSF) of dogs after a single dose, in combination with pharmacokinetic (PK) follow up and limited safety evaluation. 6 Beagle dogs (3 male, 3 female) were dosed with vehicle (4 ml/kg of an aqueous suspension of 20% cyclodextrin and Tween) and 6 Beagle dogs (3 male, 3 female) were dosed with compound 86 (20 mg/kg in 2 ml/kg of an aqueous 20% cyclodextrin solution) on an empty stomach. CSF was taken in conscious animals directly from the lateral ventricle via a cannula which was screwed in the skull and covered with subcutaneous tissue and skin, before and at 4, 8 and 24 hours after dosing. 8 Hours after dosing the animals got access to their regular meal for 30 minutes. Blood was taken for PK follow up (0.5, 1, 2, 4, 8 and 24 hours) and at the time of the CSF sampling, samples for serum analysis were taken. An additional sample for serum analysis was taken 10 days after dosing. The CSF samples were used for measurement of Abeta 1-37, Abeta 1-38, Abeta 1-40 and Abeta 1-42.

recombinant BACE1 protein, sequence (P56817 46-501): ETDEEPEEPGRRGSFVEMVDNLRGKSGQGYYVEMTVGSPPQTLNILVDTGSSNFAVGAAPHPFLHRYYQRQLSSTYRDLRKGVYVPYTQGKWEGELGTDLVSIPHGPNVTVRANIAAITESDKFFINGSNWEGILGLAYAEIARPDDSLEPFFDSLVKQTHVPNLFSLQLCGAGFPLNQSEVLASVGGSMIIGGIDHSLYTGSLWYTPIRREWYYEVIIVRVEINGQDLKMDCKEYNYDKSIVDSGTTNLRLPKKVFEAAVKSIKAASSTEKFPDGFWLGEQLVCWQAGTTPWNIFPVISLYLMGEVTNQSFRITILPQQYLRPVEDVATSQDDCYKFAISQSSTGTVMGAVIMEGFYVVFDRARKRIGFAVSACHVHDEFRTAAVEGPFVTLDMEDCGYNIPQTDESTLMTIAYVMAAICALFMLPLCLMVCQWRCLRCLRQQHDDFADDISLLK

C[C@]1(c2cccc(NC(=O)c3ccc(Cl)cn3)c2)N=C(N)CO[C@@H]1F (single isomer, unassigned) [Compound 86, (R*,R*)—N-[3-(5-amino-2-fluoro-3-methyl-3,6-dihydro-2H-1,4-oxazin-3-yl)phenyl]-5-chloropyridine-2-carboxamide]
IC50 [1]: 38.9 nM | efflux ratio at 120 min, 1 μM (P-gp; LLC-MDR1 monolayers, ratio of B to A and A to B permeation rates, read-out: BA/AB): 1.6 | Papp A→B at 120 min, 1 μM (P-gp; read-out: A to B (Apparent Permeability, Papp)): 13.2 ×10⁻⁶ cm/s | Papp B→A at 120 min, 1 μM (P-gp; read-out: B to A (Apparent Permeability, Papp)): 20.9 ×10⁻⁶ cm/s | decrease in Abeta 1-38 in CSF compared to own baseline (Abeta 1-38): > 90% | melting point: 157.7 °C | clinical abnormalities in behavior [2]: no overt clinical abnormalities in behavior | changes in serum parameters (liver enzymes, bilirubin, ...) ([2]; serum up to 10 days after dosing): No acute or delayed changes in serum parameters
